Measured values from patent publication US20170008888A1 (KYORIN PHARMACEUTICAL CO., LTD., priority 2014, published 2017).
Read-outs that look alike come from different tables or passages of the source.

What was measured:
SMARCA4 = molecular target: T1, SMARCA4 (Homo sapiens, UniProt P51532); assay: Bromodomain binding assay: SMARCA4
T1 construct: made in house; host or cells: E. coli host derived from the BL21 strain (T7 phage lysate)
Protocol: (§1) T7 phage strains displaying bromodomains were grown in parallel in 24-well blocks in an E. coli host derived from the BL21 strain. E. coli were grown to log-phase and infected with T7 phage from a frozen stock (multiplicity of infection=0.4) and incubated with shaking at 32° C. until lysis (90-150 minutes). The lysates were centrifuged (5,000×g) and filtered (0.2 μm) to remove cell debris. […] The liganded beads were blocked with excess biotin and washed with blocking buffer (SeaBlock (Pierce), 1% BSA, 0.05 Tween 20, 1 mM DTT) to remove unbound ligand and to reduce non-specific phage binding. […] Test compounds (T62 and 46) were prepared as 1000× stocks in 100% DMSO and subsequently diluted 1:10 in monoethylene glycol (MEG) to create stocks at 100× the screening concentration (resulting stock solution is 10% DMSO/90% MEG). The compounds were then diluted directly into the assays such that the final concentration of DMSO and MEG were 0.1% and 0.9%, respectively. All reactions were performed in polystyrene 96-well plates in a final volume of 0.135 ml. […] The bromodomain concentration in the eluates was measured by qPCR. Compounds were assayed for binding activity against a panel of 40 bromodomain-containing proteins.

BAZ2B = molecular target: T2, BAZ2B (Homo sapiens, UniProt Q9UIF8); assay: Bromodomain binding assay: BAZ2B
T2 construct: T7 phage strains displaying bromodomains were grown in parallel; made in house; host or cells: E. coli host derived from BL21, infected with T7 phage
T2 sequence (Q9UIF8 2060-2164 limits assumed, species assumed): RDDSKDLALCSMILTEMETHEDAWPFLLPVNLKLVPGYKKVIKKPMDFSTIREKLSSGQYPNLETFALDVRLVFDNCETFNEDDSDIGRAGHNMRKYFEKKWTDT
Protocol: as §1

BRD3 = molecular target: T3, BRD3 (Homo sapiens, UniProt Q15059); assay: Bromodomain binding assay: BRD3
T3 construct: read out by qPCR of the phage DNA
T3 sequence (Q15059 whole entry): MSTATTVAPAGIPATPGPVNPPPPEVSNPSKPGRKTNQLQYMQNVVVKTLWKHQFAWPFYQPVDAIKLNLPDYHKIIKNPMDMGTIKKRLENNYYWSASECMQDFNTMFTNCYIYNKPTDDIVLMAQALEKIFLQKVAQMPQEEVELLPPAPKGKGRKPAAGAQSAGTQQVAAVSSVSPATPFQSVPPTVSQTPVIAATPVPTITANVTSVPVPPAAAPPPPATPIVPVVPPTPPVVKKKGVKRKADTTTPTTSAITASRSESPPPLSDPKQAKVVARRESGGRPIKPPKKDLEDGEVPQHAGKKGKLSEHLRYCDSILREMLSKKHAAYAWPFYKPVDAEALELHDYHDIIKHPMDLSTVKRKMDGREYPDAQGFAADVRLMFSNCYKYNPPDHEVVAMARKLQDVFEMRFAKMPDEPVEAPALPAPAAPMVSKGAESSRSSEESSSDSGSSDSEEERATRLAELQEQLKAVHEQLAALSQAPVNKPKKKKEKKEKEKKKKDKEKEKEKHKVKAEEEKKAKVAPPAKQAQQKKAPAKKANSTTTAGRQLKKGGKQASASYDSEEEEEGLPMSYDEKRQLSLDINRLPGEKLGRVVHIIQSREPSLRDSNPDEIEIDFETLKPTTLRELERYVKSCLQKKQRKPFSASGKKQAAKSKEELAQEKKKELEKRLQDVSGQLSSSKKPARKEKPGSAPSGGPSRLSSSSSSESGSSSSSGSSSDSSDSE
Protocol: as §1

[1] = system: primary human corneal epithelial cells; assay: Cytokine response in primary human corneal epithelial cells stimulated with IFNγ, IL-1β or IL-17A; format: cell-based; conditions: Corneal epithelial cell, 24 h, 5 μM compound
Protocol: Primary corneal epithelial cells were obtained from Life Technologies (Carlsbad, Calif.) and maintained in Keratinocyte-SFM media supplemented with EGF and bovine pituitary extract (Life Technologies). Cells were seeded at 1e5 cells/ml and incubated at 37° C. in a humidified atmosphere at 5% CO2 overnight to adhere. Cells were supplement-starved overnight in unsupplemented K-SFM media containing 0.5% BSA then treated with compound for 1 h at 37° C. in a humidified atmosphere at 5% CO2. DMSO at a final concentration of 0.1% served as the non-inhibited control. Cells were stimulated with 20 ng/ml of human recombinant IFNγ (R & D Systems, Minneapolis, Minn.), IL-1β (R & D Systems), or IL-17A (eBioscience, San Diego, Calif.) for 24 h. Supernatant was then collected and analyzed for cytokine concentrations using the Bio-Plex Pro Human Cytokine 17-Plex Panel (Bio-Rad Laboratories, Hercules, Calif.) according to the manufacturer's instructions. Magnetic beads were measured on the Bio-Plex MAGPIX multiplex reader instrument using the accompanying xPONENT 4.2 acquisition software (Bio-Rad Laboratories). Data were analyzed via the Bio-Plex Manager software v6.1 (Bio-Rad Laboratories).
Percent inhibition of cytokines in culture supernatant during 5 μM compound treatment of primary corneal epithelial cells. Shown below are data from a representative experiment.

[2] = +20 ng/ml IFNγ, read-out: Percent inhibition of cytokine relative to DMSO controls, G-CSF
[3] = +20 ng/ml IFNγ, read-out: Percent inhibition of cytokine relative to DMSO controls, GM-CSF
[4] = +20 ng/ml IFNγ, read-out: Percent inhibition of cytokine relative to DMSO controls, IL-6
[5] = +20 ng/ml IFNγ, read-out: Percent inhibition of cytokine relative to DMSO controls, MCP-1
[6] = +20 ng/ml IL-1β, read-out: Percent inhibition of cytokine relative to DMSO controls, G-CSF
[7] = +20 ng/ml IL-1β, read-out: Percent inhibition of cytokine relative to DMSO controls, GM-CSF
[8] = +20 ng/ml IL-1β, read-out: Percent inhibition of cytokine relative to DMSO controls, IL-6
[9] = +20 ng/ml IL-1β, read-out: Percent inhibition of cytokine relative to DMSO controls, MCP-1
[10] = +20 ng/ml IL-17A, read-out: Percent inhibition of cytokine relative to DMSO controls, G-CSF
[11] = +20 ng/ml IL-17A, read-out: Percent inhibition of cytokine relative to DMSO controls, GM-CSF
[12] = +20 ng/ml IL-17A, read-out: Percent inhibition of cytokine relative to DMSO controls, IL-6
[13] = +20 ng/ml IL-17A, read-out: Percent inhibition of cytokine relative to DMSO controls, MCP-1

T1 sequence (P51532 1453-1564 limits assumed): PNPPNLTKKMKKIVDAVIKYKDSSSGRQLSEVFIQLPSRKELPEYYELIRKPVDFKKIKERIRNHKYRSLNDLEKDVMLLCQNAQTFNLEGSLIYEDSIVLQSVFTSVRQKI

Row | Kd (SMARCA4) | Kd (BAZ2B) | Kd (BRD3) | SMILES | inhibition at 5 µM [1, 2] | inhibition at 5 µM [1, 3] | inhibition at 5 µM [1, 4] | inhibition at 5 µM [1, 5] | inhibition at 5 µM [1, 6] | inhibition at 5 µM [1, 7] | inhibition at 5 µM [1, 8] | inhibition at 5 µM [1, 9] | inhibition at 5 µM [1, 10] | inhibition at 5 µM [1, 11] | inhibition at 5 µM [1, 12] | inhibition at 5 µM [1, 13]
1 | > 20 µM | > 20 µM | 33 nM | CCOc1cc(C(=O)N2CCC(N3CCCC3)CC2)ccc1Nc1cc2c(cn1)N(C)C(=O)c1ccccc1N2C [Compound 46, 3-(2-Ethoxy-4-(4-(pyrrolidin-1-yl)piperidine-1-carbonyl)phenylamino)-5,11-dimethyl-5H-benzo[e]pyrido[3,4-b][1,4]diazepin-10(11H)-one] | 42.1% | 30.4% | 84.4% | 93.4% | 86.3% | 97% | 92.2% | 52.1% | 90.3% | 92.5% | 94.7% | 42.7%
2 | > 20 µM | > 20 µM | 110 nM | CCOc1cc(C(=O)N[C@H]2CC[C@H](O)CC2)ccc1Nc1cc2c(cn1)N(C)C(=O)c1ccccc1N2C [Compound T62] | 28% | 25.4% | 67.9% | 89.5% | 89.3% | 97.1% | 88.7% | 58% | 86.4% | 89.7% | 89.6% | 36%
